Patent US12264156B2, “Compounds and pharmaceutical compositions thereof for the treatment of diseases” (GALAPAGOS NV, priority 2018, dated 2025)

Legend:
Assay type in all cases: biochemical
Conditions in all cases: ADP-Glo SIK kinase assay
[1] = molecular target: T1, SIK1 (Homo sapiens, UniProt P57059); assay: ADP-Glo kinase assay, SIK1
T1 construct: purchased Carna Biosciences 02-131
Procedure, shortened: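 ADP-Glo, RT throughout. Enz/substrate + ATP, 120 min; ADP-Glo reagent 40 min (ATP depletion); detection reagent 30 min; luminescence read. Neg ctrl 1% DMSO, pos ctrl 10 μM staurosporine, final concs.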

[2] = molecular target: T2, SIK3 (Homo sapiens, UniProt Q9Y2K2); assay: ADP-Glo kinase assay, SIK3
T2 construct: purchased SignalChem S12-11G-100
Procedure, shortened: (§1)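 Kinase reactions (enzyme-substrate mix plus ATP) ran 120 min at room temperature for each of SIK3 and SIK2. Signal came from ADP-Glo: unconsumed ATP removed (40 min), ADP reconverted and detected by luciferase/luciferin (30 min), with luminescence tracking kinase activity. 10 μM staurosporine and 1% DMSO (final) served as controls.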

[3] = molecular target: T3, SIK2 (Homo sapiens, UniProt Q9H0K1); assay: ADP-Glo kinase assay, SIK2
T3 construct: purchased ThermoFisher Scientific PV4792
Procedure, shortened: as §1

T2 sequence (Q9Y2K2 whole entry): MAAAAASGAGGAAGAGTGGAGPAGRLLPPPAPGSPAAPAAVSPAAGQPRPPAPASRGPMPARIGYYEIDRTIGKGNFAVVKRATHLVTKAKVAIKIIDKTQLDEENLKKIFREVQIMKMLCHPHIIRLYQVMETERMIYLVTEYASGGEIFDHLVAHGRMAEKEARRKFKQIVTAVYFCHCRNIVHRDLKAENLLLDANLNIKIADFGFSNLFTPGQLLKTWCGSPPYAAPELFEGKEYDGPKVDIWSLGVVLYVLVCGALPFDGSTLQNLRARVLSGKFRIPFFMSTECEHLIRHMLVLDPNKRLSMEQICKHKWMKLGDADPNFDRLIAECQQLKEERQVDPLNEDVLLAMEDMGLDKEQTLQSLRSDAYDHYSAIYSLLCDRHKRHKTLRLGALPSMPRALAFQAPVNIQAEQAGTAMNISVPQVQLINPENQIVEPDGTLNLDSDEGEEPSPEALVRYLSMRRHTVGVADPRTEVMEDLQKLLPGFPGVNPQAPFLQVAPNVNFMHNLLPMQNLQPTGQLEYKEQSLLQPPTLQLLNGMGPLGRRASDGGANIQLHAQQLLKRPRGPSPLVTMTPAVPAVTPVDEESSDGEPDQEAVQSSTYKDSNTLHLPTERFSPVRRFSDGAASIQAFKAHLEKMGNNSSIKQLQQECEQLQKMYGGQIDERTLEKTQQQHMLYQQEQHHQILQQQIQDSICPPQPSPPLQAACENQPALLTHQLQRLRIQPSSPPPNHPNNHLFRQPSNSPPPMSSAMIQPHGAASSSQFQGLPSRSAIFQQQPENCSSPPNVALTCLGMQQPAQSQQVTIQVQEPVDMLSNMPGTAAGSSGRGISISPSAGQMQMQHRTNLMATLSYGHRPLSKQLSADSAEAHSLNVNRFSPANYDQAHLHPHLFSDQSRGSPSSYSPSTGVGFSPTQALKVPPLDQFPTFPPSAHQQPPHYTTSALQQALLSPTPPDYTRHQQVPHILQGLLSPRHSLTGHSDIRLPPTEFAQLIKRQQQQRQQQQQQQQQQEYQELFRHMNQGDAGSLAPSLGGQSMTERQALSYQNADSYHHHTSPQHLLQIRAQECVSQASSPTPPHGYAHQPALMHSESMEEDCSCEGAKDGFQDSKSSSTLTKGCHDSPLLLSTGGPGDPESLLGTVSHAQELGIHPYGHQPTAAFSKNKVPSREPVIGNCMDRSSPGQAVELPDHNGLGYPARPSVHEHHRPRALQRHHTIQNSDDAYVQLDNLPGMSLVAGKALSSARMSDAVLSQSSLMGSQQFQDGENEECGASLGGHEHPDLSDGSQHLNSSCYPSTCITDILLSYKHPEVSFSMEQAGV
T3 sequence (Q9H0K1 whole entry): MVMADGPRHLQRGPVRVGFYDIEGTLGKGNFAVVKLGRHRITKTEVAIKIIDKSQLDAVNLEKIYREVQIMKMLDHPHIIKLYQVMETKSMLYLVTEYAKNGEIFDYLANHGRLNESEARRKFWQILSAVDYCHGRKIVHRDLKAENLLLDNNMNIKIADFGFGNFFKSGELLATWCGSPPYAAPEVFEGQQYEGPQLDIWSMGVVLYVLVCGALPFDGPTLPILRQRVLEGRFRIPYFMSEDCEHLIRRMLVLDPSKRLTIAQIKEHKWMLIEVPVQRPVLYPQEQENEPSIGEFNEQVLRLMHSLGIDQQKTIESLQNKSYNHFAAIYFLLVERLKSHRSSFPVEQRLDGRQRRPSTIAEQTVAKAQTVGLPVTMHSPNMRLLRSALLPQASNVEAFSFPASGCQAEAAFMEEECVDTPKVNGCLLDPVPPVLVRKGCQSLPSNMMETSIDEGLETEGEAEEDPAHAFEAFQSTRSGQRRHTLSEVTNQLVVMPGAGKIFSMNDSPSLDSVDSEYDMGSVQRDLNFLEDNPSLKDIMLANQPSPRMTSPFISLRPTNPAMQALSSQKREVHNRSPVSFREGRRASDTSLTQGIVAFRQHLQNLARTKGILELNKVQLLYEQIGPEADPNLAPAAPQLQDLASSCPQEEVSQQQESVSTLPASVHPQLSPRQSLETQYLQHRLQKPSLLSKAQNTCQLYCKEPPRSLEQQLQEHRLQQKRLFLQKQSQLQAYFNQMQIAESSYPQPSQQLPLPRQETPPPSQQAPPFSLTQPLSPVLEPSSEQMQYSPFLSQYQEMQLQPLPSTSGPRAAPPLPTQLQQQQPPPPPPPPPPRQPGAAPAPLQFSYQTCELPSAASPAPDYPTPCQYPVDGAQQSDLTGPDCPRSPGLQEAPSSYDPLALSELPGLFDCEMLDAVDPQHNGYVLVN
T1 sequence (P57059 whole entry): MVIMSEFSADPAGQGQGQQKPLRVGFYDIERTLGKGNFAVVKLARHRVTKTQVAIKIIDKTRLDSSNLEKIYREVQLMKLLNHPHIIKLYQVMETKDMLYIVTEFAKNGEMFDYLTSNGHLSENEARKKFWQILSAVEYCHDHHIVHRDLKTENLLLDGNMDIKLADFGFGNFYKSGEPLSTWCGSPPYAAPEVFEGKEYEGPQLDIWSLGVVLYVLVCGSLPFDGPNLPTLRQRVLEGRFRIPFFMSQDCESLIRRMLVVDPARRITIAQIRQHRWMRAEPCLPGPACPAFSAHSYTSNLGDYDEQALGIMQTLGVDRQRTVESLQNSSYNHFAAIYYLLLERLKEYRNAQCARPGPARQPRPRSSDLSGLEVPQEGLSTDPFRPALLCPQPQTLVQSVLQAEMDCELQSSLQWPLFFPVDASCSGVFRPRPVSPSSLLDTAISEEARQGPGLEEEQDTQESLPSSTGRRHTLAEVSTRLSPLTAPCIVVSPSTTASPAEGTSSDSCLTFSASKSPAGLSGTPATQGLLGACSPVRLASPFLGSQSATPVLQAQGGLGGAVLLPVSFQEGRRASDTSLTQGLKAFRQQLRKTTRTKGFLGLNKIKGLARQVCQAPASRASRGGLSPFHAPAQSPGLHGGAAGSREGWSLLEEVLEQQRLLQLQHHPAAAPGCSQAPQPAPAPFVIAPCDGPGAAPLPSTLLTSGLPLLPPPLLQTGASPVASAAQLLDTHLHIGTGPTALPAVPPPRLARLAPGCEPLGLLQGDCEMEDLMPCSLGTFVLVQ

Question: Which results are given for `COc1cc(-c2cnc3cc(OC[C@H]4CCCN4CC(F)F)ccn23)cc(OC(F)F)c1C(=O)NC1CC1` [compound 80, N-cyclopropyl-4-[7-[[(2R)-1-(2,2-difluoroethyl)pyrrolidin-2-yl]methoxy]imidazo[1,2-a]pyridin-3-yl]-2-(difluoromethoxy)-6-methoxy-benzamide]?
Answer: IC50 [1]: 10 to 100 nM; IC50 [2]: 0.01 to 10 nM; IC50 [3]: 0.01 to 10 nM

Question: Which IC50 [1] does the source give for `COc1cc(-c2cnc3cc(OCC4CN(C)CCO4)ccn23)cc(OC(F)F)c1C(=O)NC1CC1` (stereo not drawn) [compound 82, N-cyclopropyl-2-(difluoromethoxy)-6-methoxy-4-[7-[(4-methylmorpholin-2-yl)methoxy]imidazo[1,2-a]pyridin-3-yl]benzamide] here?
Answer: 10 to 100 nM

Question: And the IC50 [2]?
Answer: 0.01 to 10 nM

Question: And the IC50 [3]?
Answer: 0.01 to 10 nM

Question: `COc1cc(-c2cnc3cc(OCc4cncn4C)ccn23)cc2c1C(=O)N(CC(F)(F)F)CC2` [compound 85, 8-methoxy-6-[7-[(3-methylimidazol-4-yl)methoxy]imidazo[1,2-a]pyridin-3-yl]-2-(2,2,2-trifluoroethyl)-3,4-dihydroisoquinolin-1-one] was tested. Which IC50 [1] did it give?
Answer: > 500 nM

Question: What about the IC50 [2] of the same compound?
Answer: 0.01 to 10 nM

Question: What about the IC50 [3] of the same compound?
Answer: 0.01 to 10 nM

Question: What does the source list for `COc1cc(-c2cnc3cc(OCC4CCN4C(=O)OC(C)(C)C)ccn23)cc(OC(F)F)c1C(=O)NC1CC1` (stereo not drawn) [compound 87, tert-butyl 2-[[3-[4-(cyclopropylcarbamoyl)-3-(difluoromethoxy)-5-methoxy-phenyl]imidazo[1,2-a]pyridin-7-yl]oxymethyl]azetidine-1-carboxylate]?
Answer: IC50 [1]: 10 to 100 nM; IC50 [2]: 0.01 to 10 nM; IC50 [3]: 0.01 to 10 nM

Question: For `COc1cc(-c2cnc3cc(OCC4(C)COC4)ccn23)cc(OC(F)F)c1C(=O)NC1CC1` [compound 89, N-cyclopropyl-2-(difluoromethoxy)-6-methoxy-4-[7-[(3-methyloxetan-3-yl)methoxy]imidazo[1,2-a]pyridin-3-yl]benzamide], which IC50 [1] is on record?
Answer: 10 to 100 nM

Question: And the IC50 [2]?
Answer: 0.01 to 10 nM

Question: What about the IC50 [3] of the same compound?
Answer: 0.01 to 10 nM

Question: Which results are given for `COc1cc(-c2cnc3cc(OCC(F)F)ccn23)cc(OC(F)F)c1C(=O)NC1CC1` [compound 90, N-cyclopropyl-4-[7-(2,2-difluoroethoxy)imidazo [1,2-a]pyridin-3-yl]-2-(difluoromethoxy)-6-methoxy-benzamide]?
Answer: IC50 [1]: 10 to 100 nM; IC50 [2]: 0.01 to 10 nM; IC50 [3]: 0.01 to 10 nM

Question: For `COc1cc(-c2cnc3cc(OCC(F)(F)F)ccn23)cc(OC(F)F)c1C(=O)NC1CC1` [compound 91, N-cyclopropyl-2-(difluoromethoxy)-6-methoxy-4-[7-(2,2,2-trifluoroethoxy)imidazo [1,2-a]pyridin-3-yl]benzamide], which IC50 [1] is on record?
Answer: 10 to 100 nM

Question: And the IC50 [2]?
Answer: 0.01 to 10 nM

Question: And the IC50 [3]?
Answer: 0.01 to 10 nM

Question: Which IC50 [1] does the source give for `COc1cc(-c2cnc3cc(OCC4CCOC4)ccn23)cc(OC(F)F)c1C(=O)NC1CC1` (stereo not drawn) [compound 92, N-cyclopropyl-2-(difluoromethoxy)-6-methoxy-4-[7-(tetrahydrofuran-3-ylmethoxy)imidazo[1,2-a]pyridin-3-yl]benzamide] here?
Answer: 10 to 100 nM

Question: And the IC50 [2]?
Answer: 0.01 to 10 nM

Question: What about the IC50 [3] of the same compound?
Answer: 0.01 to 10 nM

Question: What does the source list for `COc1cc(-c2cnc3cc(OCC4CCCO4)ccn23)cc(OC(F)F)c1C(=O)NC1CC1` (stereo not drawn) [compound 93, N-cyclopropyl-2-(difluoromethoxy)-6-methoxy-4-[7-(tetrahydrofuran-2-ylmethoxy)imidazo[1,2-a]pyridin-3-yl]benzamide]?
Answer: IC50 [1]: 10 to 100 nM; IC50 [2]: 0.01 to 10 nM; IC50 [3]: 0.01 to 10 nM

Question: Which results are given for `COc1cc(-c2cnc3cc(OCc4ncccn4)ccn23)cc(OC(F)F)c1C(=O)NC1CC1` [compound 94, N-cyclopropyl-2-(difluoromethoxy)-6-methoxy-4-[7-(pyrimidin-2-ylmethoxy)imidazo[1,2-a]pyridin-3-yl]benzamide]?
Answer: IC50 [1]: 10 to 100 nM; IC50 [2]: 10 to 100 nM; IC50 [3]: 10 to 100 nM

Question: `COc1cc(-c2cnc3cc(OCc4cncs4)ccn23)cc(OC(F)F)c1C(=O)NC1CC1` [compound 95, N-cyclopropyl-2-(difluoromethoxy)-6-methoxy-4-[7-(thiazol-5-ylmethoxy)imidazo[1,2-a]pyridin-3-yl]benzamide] was tested. Which IC50 [1] did it give?
Answer: 10 to 100 nM

Question: And the IC50 [2]?
Answer: 0.01 to 10 nM

Question: What about the IC50 [3] of the same compound?
Answer: 0.01 to 10 nM

Question: What does the source list for `COc1cc(-c2cnc3cc(OCC4CC4)ccn23)cc(OC(F)F)c1C(=O)NC1CC1` [compound 96, N-cyclopropyl-4-[7-(cyclopropylmethoxy)imidazo[1,2-a]pyridin-3-yl]-2-(difluoromethoxy)-6-methoxy-benzamide]?
Answer: IC50 [1]: 10 to 100 nM; IC50 [2]: 0.01 to 10 nM; IC50 [3]: 0.01 to 10 nM

Question: What does the source list for `COc1cc(-c2cnc3cc(OCC4(C)CC4)ccn23)cc(OC(F)F)c1C(=O)NC1CC1` [compound 97, N-cyclopropyl-2-(difluoromethoxy)-6-methoxy-4-[7-[(1-methylcyclopropyl)methoxy]imidazo[1,2-a]pyridin-3-yl]benzamide]?
Answer: IC50 [1]: 10 to 100 nM; IC50 [2]: 0.01 to 10 nM; IC50 [3]: 0.01 to 10 nM

Question: How did the IC50 [1] turn out when `COc1cc(-c2cnc3cc(OCC4COCCO4)ccn23)cc(OC(F)F)c1C(=O)NC1CC1` (stereo not drawn) [compound 98, N-cyclopropyl-2-(difluoromethoxy)-4-[7-(1,4-dioxan-2-ylmethoxy)imidazo[1,2-a]pyridin-3-yl]-6-methoxy-benzamide] was run?
Answer: 10 to 100 nM

Question: What about the IC50 [2] of the same compound?
Answer: 0.01 to 10 nM

Question: And the IC50 [3]?
Answer: 0.01 to 10 nM

Question: With `COc1cc(-c2cnc3cc(OCC4CCC(=O)N4)ccn23)cc(OC(F)F)c1C(=O)NC1CC1` (stereo not drawn) [compound 99, N-cyclopropyl-2-(difluoromethoxy)-6-methoxy-4-[7-[(5-oxopyrrolidin-2-yl)methoxy]imidazo[1,2-a]pyridin-3-yl]benzamide] as the compound, how does the IC50 [1] read?
Answer: 0.01 to 10 nM

Question: And the IC50 [2]?
Answer: 0.01 to 10 nM

Question: And the IC50 [3]?
Answer: 0.01 to 10 nM

Question: Which IC50 [1] does the source give for `COc1cc(-c2cnc3cc(OCC(=O)N(C)C)ccn23)cc(OC(F)F)c1C(=O)NC1CC1` [compound 100, N-cyclopropyl-2-(difluoromethoxy)-4-[7-[2-(dimethylamino)-2-oxo-ethoxy]imidazo[1,2-a]pyridin-3-yl]-6-methoxy-benzamide] here?
Answer: 100 to 500 nM

Question: What about the IC50 [2] of the same compound?
Answer: 10 to 100 nM

Question: What about the IC50 [3] of the same compound?
Answer: 10 to 100 nM

Question: For `COc1cc(-c2cnc3cc(OCC4CNC(=O)C4)ccn23)cc(OC(F)F)c1C(=O)NC1CC1` (stereo not drawn) [compound 102, N-cyclopropyl-2-(difluoromethoxy)-6-methoxy-4-[7-[(5-oxopyrrolidin-3-yl)methoxy]imidazo[1,2-a]pyridin-3-yl]benzamide], which IC50 [1] is on record?
Answer: 10 to 100 nM

Question: And the IC50 [2]?
Answer: 0.01 to 10 nM

Question: And the IC50 [3]?
Answer: 0.01 to 10 nM

Question: For `COc1cc(-c2cnc3cc(OCc4ccncc4)ccn23)cc(OC(F)F)c1C(=O)NC1CC1` [compound 103, N-cyclopropyl-2-(difluoromethoxy)-6-methoxy-4-[7-(4-pyridylmethoxy)imidazo [1,2-a]pyridin-3-yl]benzamide], which IC50 [1] is on record?
Answer: 10 to 100 nM

Question: What about the IC50 [2] of the same compound?
Answer: 0.01 to 10 nM

Question: What about the IC50 [3] of the same compound?
Answer: 0.01 to 10 nM

Question: Which results are given for `COc1cc(-c2cnc3cc(OCc4ccccn4)ccn23)cc(OC(F)F)c1C(=O)NC1CC1` [compound 105, N-cyclopropyl-2-(difluoromethoxy)-6-methoxy-4-[7-(2-pyridylmethoxy)imidazo [1,2-a]pyridin-3-yl]benzamide]?
Answer: IC50 [1]: 10 to 100 nM; IC50 [2]: 0.01 to 10 nM; IC50 [3]: 0.01 to 10 nM

Question: For `COc1cc(-c2cnc3cc(OCC(C)(C)N(C)C)ccn23)cc(OC(F)F)c1C(=O)NC1CC1` [compound 106, N-cyclopropyl-2-(difluoromethoxy)-4-[7-[2-(dimethylamino)-2-methyl-propoxy]imidazo[1,2-a]pyridin-3-yl]-6-methoxy-benzamide], which IC50 [1] is on record?
Answer: > 500 nM

Question: What about the IC50 [2] of the same compound?
Answer: 10 to 100 nM

Question: What about the IC50 [3] of the same compound?
Answer: 10 to 100 nM

Question: Which results are given for `COc1cc(-c2cnc3cc(OCC4CC(N)C4)ccn23)cc(OC(F)F)c1C(=O)NC1CC1` (stereo not drawn) [compound 108, 4-[7-[(3-aminocyclobutyl)methoxy]imidazo[1,2-a]pyridin-3-yl]-N-cyclopropyl-2-(difluoromethoxy)-6-methoxy-benzamide]?
Answer: IC50 [1]: 0.01 to 10 nM; IC50 [2]: 0.01 to 10 nM; IC50 [3]: 0.01 to 10 nM

Question: For `COc1cc(-c2cnc3cc(OCCN4CCC4)ccn23)cc(OC(F)F)c1C(=O)NC1CC1` [compound 112, 4-[7-[2-(azetidin-1-yl)ethoxy]imidazo[1,2-a]pyridin-3-yl]-N-cyclopropyl-2-(difluoromethoxy)-6-methoxy-benzamide], which IC50 [1] is on record?
Answer: 10 to 100 nM

Question: What about the IC50 [2] of the same compound?
Answer: 0.01 to 10 nM

Question: What about the IC50 [3] of the same compound?
Answer: 0.01 to 10 nM

Question: What does the source list for `COc1cc(-c2cnc3cc(OCCNCCO)ccn23)cc(OC(F)F)c1C(=O)NC1CC1` [compound 114]?
Answer: IC50 [1]: 10 to 100 nM; IC50 [2]: 0.01 to 10 nM; IC50 [3]: 0.01 to 10 nM

Question: `COc1cc(-c2cnc3cc(OCCCN)ccn23)cc(OC(F)F)c1C(=O)NC1CC1` [compound 115, 4-[7-(3-aminopropoxy)imidazo [1,2-a]pyridin-3-yl]-N-cyclopropyl-2-(difluoromethoxy)-6-methoxy-benzamide] was tested. Which IC50 [1] did it give?
Answer: 10 to 100 nM

Question: What about the IC50 [2] of the same compound?
Answer: 0.01 to 10 nM

Question: What about the IC50 [3] of the same compound?
Answer: 0.01 to 10 nM

Question: `COc1cc(-c2cnc3cc(OCC4(CN)CCC4)ccn23)cc(OC(F)F)c1C(=O)NC1CC1` [compound 116, 4-[7-[[1-(aminomethyl)cyclobutyl]methoxy]imidazo[1,2-a]pyridin-3-yl]-N-cyclopropyl-2-(difluoromethoxy)-6-methoxy-benzamide] was tested. Which IC50 [1] did it give?
Answer: 10 to 100 nM

Question: What about the IC50 [2] of the same compound?
Answer: 0.01 to 10 nM

Question: And the IC50 [3]?
Answer: 0.01 to 10 nM

Question: Which IC50 [1] does the source give for `COc1cc(-c2cnc3cc(OCC4CCCCN4)ccn23)cc(OC(F)F)c1C(=O)NC1CC1` (stereo not drawn) [compound 119, N-cyclopropyl-2-(difluoromethoxy)-6-methoxy-4-[7-(2-piperidylmethoxy)imidazo[1,2-a]pyridin-3-yl]benzamide] here?
Answer: 10 to 100 nM

Question: What about the IC50 [2] of the same compound?
Answer: 0.01 to 10 nM

Question: And the IC50 [3]?
Answer: 0.01 to 10 nM

Question: With `COc1cc(-c2cnc3cc(OC[C@@H]4COCCO4)ccn23)cc(OC(F)F)c1C(=O)NC1CC1` [compound 120, N-cyclopropyl-2-(difluoromethoxy)-4-[7-[[(2S)-1,4-dioxan-2-yl]methoxy]imidazo[1,2-a]pyridin-3-yl]-6-methoxy-benzamide] as the compound, how does the IC50 [1] read?
Answer: 10 to 100 nM

Question: And the IC50 [2]?
Answer: 0.01 to 10 nM

Question: And the IC50 [3]?
Answer: 0.01 to 10 nM
